Assays:
Test in all cases: relative viability (nuclei count vs DMSO), 5 days (fraction); higher = more cells survive
NCI-H1915 = test system: NCI-H1915
How it was run: (§1)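 Lung cancer cell lines in 1536-well plates were dosed by pin tool the day after seeding, either with one drug alone or with a fixed anchor-drug dose plus five library-drug doses (not always all listed) in √10 steps. After 5 days, cells were fixed and their nuclei stained in one step (final 0.05% Triton X-100, 1% formaldehyde, 1 ug/ml Hoechst), then counted on 4× images. Relative viability is the nuclei count in treated wells divided by that in vehicle wells. Values are medians of duplicate plates.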

NCI-H647 = test system: NCI-H647
How it was run: as §1

NCI-H2023 = test system: NCI-H2023
How it was run: as §1

PC-14 = test system: PC-14
How it was run: as §1

NCI-H1734 = test system: NCI-H1734
How it was run: as §1

NCI-H1563 = test system: NCI-H1563
How it was run: as §1

NCI-H2085 = test system: NCI-H2085
How it was run: as §1

EPLC-272H = test system: EPLC-272H
How it was run: as §1

NCI-H2126 = test system: NCI-H2126
How it was run: as §1

SK-LU-1 = test system: SK-LU-1
How it was run: as §1

SW 1573 = test system: SW 1573
How it was run: as §1

H3255 = test system: H3255
How it was run: as §1

NCI-H2347 = test system: NCI-H2347
How it was run: as §1

LXF-289 = test system: LXF-289
How it was run: as §1

NCI-H727 = test system: NCI-H727
How it was run: as §1

HOP-62 = test system: HOP-62
How it was run: as §1

NCI-H1993 = test system: NCI-H1993
How it was run: as §1

LCLC-97TM1 = test system: LCLC-97TM1
How it was run: as §1

EMC-BAC-2 = test system: EMC-BAC-2
How it was run: as §1

NCI-H661 = test system: NCI-H661
How it was run: as §1

NCI-H322M = test system: NCI-H322M
How it was run: as §1

NCI-H2009 = test system: NCI-H2009
How it was run: as §1

**Q.** What does the source list for Nc1ccn([C@@H]2O[C@H](CO)[C@@H](O)[C@@H]2O)c(=O)n1 [Cytarabine] + COc1cccc2cc(-c3nc([C@H]4CC[C@H](C(=O)O)CC4)n4ncnc(N)c34)[nH]c12 [OSI-027] (partner 0.5 µM)?
**A.** relative viability (NCI-H1915; first compound 0.005 µM): 0.657; relative viability (NCI-H1915; first compound 0.01581 µM): 0.57; relative viability (NCI-H1915; first compound 0.05 µM): 0.554; relative viability (NCI-H1915; first compound 0.1581 µM): 0.372; relative viability (NCI-H1915; first compound 0.5 µM): 0.338; relative viability (NCI-H647; first compound 0.005 µM): 0.479; relative viability (NCI-H647; first compound 0.01581 µM): 0.33; relative viability (NCI-H647; first compound 0.05 µM): 0.271; relative viability (NCI-H647; first compound 0.1581 µM): 0.105; relative viability (NCI-H647; first compound 0.5 µM): 0.0867; relative viability (NCI-H2023; first compound 0.005 µM): 0.212; relative viability (NCI-H2023; first compound 0.01581 µM): 0.152; relative viability (NCI-H2023; first compound 0.05 µM): 0.107; relative viability (NCI-H2023; first compound 0.1581 µM): 0.104; relative viability (NCI-H2023; first compound 0.5 µM): 0.102; relative viability (PC-14; first compound 0.005 µM): 0.691; relative viability (PC-14; first compound 0.01581 µM): 0.455; relative viability (PC-14; first compound 0.05 µM): 0.71; relative viability (PC-14; first compound 0.1581 µM): 0.166; relative viability (PC-14; first compound 0.5 µM): 0.115; relative viability (NCI-H1734; first compound 0.005 µM): 0.355; relative viability (NCI-H1734; first compound 0.01581 µM): 0.285; relative viability (NCI-H1734; first compound 0.05 µM): 0.222; relative viability (NCI-H1734; first compound 0.1581 µM): 0.133; relative viability (NCI-H1734; first compound 0.5 µM): 0.13; relative viability (NCI-H1563; first compound 0.005 µM): 0.691; relative viability (NCI-H1563; first compound 0.01581 µM): 0.797; relative viability (NCI-H1563; first compound 0.05 µM): 0.773; relative viability (NCI-H1563; first compound 0.1581 µM): 0.583; relative viability (NCI-H1563; first compound 0.5 µM): 0.628; relative viability (NCI-H2085; first compound 0.005 µM): 0.535; relative viability (NCI-H2085; first compound 0.01581 µM): 0.735; relative viability (NCI-H2085; first compound 0.05 µM): 0.623; relative viability (NCI-H2085; first compound 0.1581 µM): 0.442; relative viability (NCI-H2085; first compound 0.5 µM): 0.459; relative viability (EPLC-272H; first compound 0.005 µM): 0.268; relative viability (EPLC-272H; first compound 0.01581 µM): 0.28; relative viability (EPLC-272H; first compound 0.05 µM): 0.214; relative viability (EPLC-272H; first compound 0.1581 µM): 0.189; relative viability (EPLC-272H; first compound 0.5 µM): 0.182; relative viability (NCI-H2126; first compound 0.005 µM): 0.62; relative viability (NCI-H2126; first compound 0.01581 µM): 0.626; relative viability (NCI-H2126; first compound 0.05 µM): 0.544; relative viability (NCI-H2126; first compound 0.1581 µM): 0.533; relative viability (NCI-H2126; first compound 0.5 µM): 0.45; relative viability (SK-LU-1; first compound 0.005 µM): 0.275; relative viability (SK-LU-1; first compound 0.01581 µM): 0.294; relative viability (SK-LU-1; first compound 0.05 µM): 0.297; relative viability (SK-LU-1; first compound 0.1581 µM): 0.193; relative viability (SK-LU-1; first compound 0.5 µM): 0.199; relative viability (SW 1573; first compound 0.005 µM): 0.735; relative viability (SW 1573; first compound 0.01581 µM): 0.49; relative viability (SW 1573; first compound 0.05 µM): 0.466; relative viability (SW 1573; first compound 0.1581 µM): 0.131; relative viability (SW 1573; first compound 0.5 µM): 0.0871; relative viability (H3255; first compound 0.005 µM): 0.521; relative viability (H3255; first compound 0.01581 µM): 0.579; relative viability (H3255; first compound 0.05 µM): 0.53; relative viability (H3255; first compound 0.1581 µM): 0.429; relative viability (H3255; first compound 0.5 µM): 0.453; relative viability (NCI-H2347; first compound 0.005 µM): 0.401; relative viability (NCI-H2347; first compound 0.01581 µM): 0.282; relative viability (NCI-H2347; first compound 0.05 µM): 0.336; relative viability (NCI-H2347; first compound 0.1581 µM): 0.268; relative viability (NCI-H2347; first compound 0.5 µM): 0.327; relative viability (LXF-289; first compound 0.005 µM): 0.671; relative viability (LXF-289; first compound 0.01581 µM): 0.634; relative viability (LXF-289; first compound 0.05 µM): 0.419; relative viability (LXF-289; first compound 0.1581 µM): 0.237; relative viability (LXF-289; first compound 0.5 µM): 0.113; relative viability (NCI-H727; first compound 0.005 µM): 0.589; relative viability (NCI-H727; first compound 0.01581 µM): 0.558; relative viability (NCI-H727; first compound 0.05 µM): 0.491; relative viability (NCI-H727; first compound 0.1581 µM): 0.38; relative viability (NCI-H727; first compound 0.5 µM): 0.347; relative viability (HOP-62; first compound 0.005 µM): 0.554; relative viability (HOP-62; first compound 0.01581 µM): 0.474; relative viability (HOP-62; first compound 0.05 µM): 0.458; relative viability (HOP-62; first compound 0.1581 µM): 0.141; relative viability (HOP-62; first compound 0.5 µM): 0.12; relative viability (NCI-H1993; first compound 0.005 µM): 0.599; relative viability (NCI-H1993; first compound 0.01581 µM): 0.56; relative viability (NCI-H1993; first compound 0.05 µM): 0.529; relative viability (NCI-H1993; first compound 0.1581 µM): 0.484; relative viability (NCI-H1993; first compound 0.5 µM): 0.498; relative viability (LCLC-97TM1; first compound 0.005 µM): 0.45; relative viability (LCLC-97TM1; first compound 0.01581 µM): 0.37; relative viability (LCLC-97TM1; first compound 0.05 µM): 0.439; relative viability (LCLC-97TM1; first compound 0.1581 µM): 0.191; relative viability (LCLC-97TM1; first compound 0.5 µM): 0.139; relative viability (EMC-BAC-2; first compound 0.005 µM): 0.413; relative viability (EMC-BAC-2; first compound 0.01581 µM): 0.353; relative viability (EMC-BAC-2; first compound 0.05 µM): 0.312; relative viability (EMC-BAC-2; first compound 0.1581 µM): 0.27; relative viability (EMC-BAC-2; first compound 0.5 µM): 0.22; relative viability (NCI-H661; first compound 0.005 µM): 0.559; relative viability (NCI-H661; first compound 0.01581 µM): 0.617; relative viability (NCI-H661; first compound 0.05 µM): 0.545; relative viability (NCI-H661; first compound 0.1581 µM): 0.413; relative viability (NCI-H661; first compound 0.5 µM): 0.363; relative viability (NCI-H322M; first compound 0.005 µM): 0.455; relative viability (NCI-H322M; first compound 0.01581 µM): 0.392; relative viability (NCI-H322M; first compound 0.05 µM): 0.325; relative viability (NCI-H322M; first compound 0.1581 µM): 0.377; relative viability (NCI-H322M; first compound 0.5 µM): 0.269; relative viability (NCI-H2009; first compound 0.005 µM): 0.656; relative viability (NCI-H2009; first compound 0.01581 µM): 0.642; relative viability (NCI-H2009; first compound 0.05 µM): 0.621; relative viability (NCI-H2009; first compound 0.1581 µM): 0.454; relative viability (NCI-H2009; first compound 0.5 µM): 0.29
